Assay results published in ChEMBL document CHEMBL1938324 (Bioorg Med Chem Lett, 2012).
Numbering of substitutions follows the chain as printed. The source made the active and inactive calls. No cut-off for these calls is given here.

Columns and labels:
[1] = biological target: T1, Muscarinic acetylcholine receptor M1 (Homo sapiens) (UniProt P11229); assay: Antagonist activity at human muscarinic M1 receptor expressed in CHO cells assessed as residual activity at 30 uM by fluorescence assay; assay type: functional, cell-based
T1 sequence (whole entry): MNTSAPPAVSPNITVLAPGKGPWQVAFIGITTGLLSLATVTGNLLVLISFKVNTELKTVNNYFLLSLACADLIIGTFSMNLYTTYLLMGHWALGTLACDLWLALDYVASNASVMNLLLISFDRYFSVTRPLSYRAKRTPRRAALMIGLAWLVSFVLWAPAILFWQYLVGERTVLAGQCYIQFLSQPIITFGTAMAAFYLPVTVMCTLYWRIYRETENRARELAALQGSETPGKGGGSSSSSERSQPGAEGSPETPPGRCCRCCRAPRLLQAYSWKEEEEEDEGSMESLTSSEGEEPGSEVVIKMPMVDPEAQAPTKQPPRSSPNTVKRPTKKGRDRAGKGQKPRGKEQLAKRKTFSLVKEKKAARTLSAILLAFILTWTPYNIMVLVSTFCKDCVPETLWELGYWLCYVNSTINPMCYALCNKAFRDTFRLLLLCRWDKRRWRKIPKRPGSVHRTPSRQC

[2] = biological target: T2, Muscarinic acetylcholine receptor M1 (Homo sapiens, UniProt P11229); assay: Antagonist activity at human muscarinic M1 receptor expressed in CHO cells assessed as inhibition of acetylcholine-induced calcium mobilization by fluorescence assay; assay type: functional, cell-based
T2 sequence (P11229 whole entry): T1 sequence (whole entry)

[3] = biological target: T1, Muscarinic acetylcholine receptor M1 (Homo sapiens); assay: Inhibition of human muscarinic M1 receptor expressed in CHO cells assessed as inhibition of acetylcholine-induced calcium mobilization at 30 uM by fluorescence assay; assay type: functional, cell-based
[4] = biological target: T1, Muscarinic acetylcholine receptor M1 (Homo sapiens); assay: Ratio of ML012 IC50 to compound IC50 for human muscarinic M1 receptor
[5] = biological target: T3, Muscarinic acetylcholine receptor M1 (Rattus norvegicus, UniProt P08482); assay: Antagonist activity at rat muscarinic M1 receptor expressed in CHO cells assessed as inhibition of acetylcholine-induced calcium mobilization by fluorescence assay; assay type: functional, cell-based
T3 sequence (P08482 whole entry): T1 sequence (whole entry) with A5V, T254S, P309S, R320K, A337G, I413V

[6] = biological target: T4, Muscarinic acetylcholine receptor M2 (Homo sapiens, UniProt P08172); assay: Antagonist activity at human muscarinic M2 receptor expressed in CHO cells assessed as inhibition of acetylcholine-induced calcium mobilization by fluorescence assay; assay type: functional, cell-based
T4 sequence (P08172 whole entry): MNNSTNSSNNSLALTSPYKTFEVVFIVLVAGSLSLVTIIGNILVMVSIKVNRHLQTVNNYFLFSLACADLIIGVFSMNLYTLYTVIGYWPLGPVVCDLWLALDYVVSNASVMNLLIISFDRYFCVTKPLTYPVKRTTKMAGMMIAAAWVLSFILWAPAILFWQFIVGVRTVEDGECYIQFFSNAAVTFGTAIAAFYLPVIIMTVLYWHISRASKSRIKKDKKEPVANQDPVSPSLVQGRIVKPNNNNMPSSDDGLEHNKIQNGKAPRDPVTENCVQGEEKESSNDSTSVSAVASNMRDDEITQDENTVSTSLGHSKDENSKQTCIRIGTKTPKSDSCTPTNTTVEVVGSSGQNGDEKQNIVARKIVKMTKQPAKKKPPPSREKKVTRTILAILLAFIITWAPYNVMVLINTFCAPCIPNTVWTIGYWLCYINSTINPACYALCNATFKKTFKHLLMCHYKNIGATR

[7] = biological target: T5, Muscarinic acetylcholine receptor M4 (Homo sapiens, UniProt P08173); assay: Antagonist activity at human muscarinic M4 receptor expressed in CHO cells assessed as inhibition of acetylcholine-induced calcium mobilization by fluorescence assay; assay type: functional, cell-based
T5 sequence (P08173 whole entry): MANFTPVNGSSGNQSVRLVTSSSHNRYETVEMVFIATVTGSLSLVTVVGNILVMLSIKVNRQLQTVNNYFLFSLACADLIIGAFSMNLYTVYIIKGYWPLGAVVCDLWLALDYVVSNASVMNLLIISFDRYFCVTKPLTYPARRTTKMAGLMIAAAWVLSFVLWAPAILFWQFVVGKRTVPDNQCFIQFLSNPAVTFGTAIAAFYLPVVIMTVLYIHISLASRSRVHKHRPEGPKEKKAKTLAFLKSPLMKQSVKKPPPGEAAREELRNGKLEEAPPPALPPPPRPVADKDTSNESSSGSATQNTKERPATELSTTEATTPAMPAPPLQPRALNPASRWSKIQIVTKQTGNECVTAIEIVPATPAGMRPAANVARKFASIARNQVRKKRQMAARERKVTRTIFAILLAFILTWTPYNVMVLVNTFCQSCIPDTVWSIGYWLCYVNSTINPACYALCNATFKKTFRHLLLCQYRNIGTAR

Rattus norvegicus = assay: Half life in iv dosed Sprague-Dawley rat; assay type: ADME, organism-based; conditions: in vivo
[8] = biological target: Muscarinic acetylcholine receptor M3 (Homo sapiens, UniProt P20309); assay: Antagonist activity at human muscarinic M3 receptor expressed in CHO cells assessed as inhibition of acetylcholine-induced calcium mobilization by fluorescence assay; assay type: functional, cell-based
[9] = biological target: T6, Muscarinic acetylcholine receptor M5 (Homo sapiens, UniProt P08912); assay: Antagonist activity at human muscarinic M5 receptor expressed in CHO cells assessed as inhibition of acetylcholine-induced calcium mobilization by fluorescence assay; assay type: functional, cell-based
T6 sequence (P08912 whole entry): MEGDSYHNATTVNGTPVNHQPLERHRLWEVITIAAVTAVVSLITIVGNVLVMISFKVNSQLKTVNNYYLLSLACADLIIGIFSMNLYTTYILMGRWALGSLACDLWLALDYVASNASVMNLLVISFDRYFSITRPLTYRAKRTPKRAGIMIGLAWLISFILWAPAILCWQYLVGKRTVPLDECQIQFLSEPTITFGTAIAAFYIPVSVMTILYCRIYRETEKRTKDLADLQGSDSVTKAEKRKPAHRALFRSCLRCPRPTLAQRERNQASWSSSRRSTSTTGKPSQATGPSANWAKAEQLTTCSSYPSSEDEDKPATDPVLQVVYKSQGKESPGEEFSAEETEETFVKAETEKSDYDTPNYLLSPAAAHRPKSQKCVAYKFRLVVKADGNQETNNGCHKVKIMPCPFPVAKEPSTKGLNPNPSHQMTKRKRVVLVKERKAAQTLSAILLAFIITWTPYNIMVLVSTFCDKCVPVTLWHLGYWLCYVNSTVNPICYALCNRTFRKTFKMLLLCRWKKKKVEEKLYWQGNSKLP

[10] = Clearance in iv dosed Sprague-Dawley rat; assay type: ADME, organism-based; conditions: in vivo
[11] = Oral bioavailability in Sprague-Dawley rat at 10 mg/kg; assay type: ADME, organism-based; conditions: in vivo

Chain of Muscarinic acetylcholine receptor M3 (P20309 whole entry): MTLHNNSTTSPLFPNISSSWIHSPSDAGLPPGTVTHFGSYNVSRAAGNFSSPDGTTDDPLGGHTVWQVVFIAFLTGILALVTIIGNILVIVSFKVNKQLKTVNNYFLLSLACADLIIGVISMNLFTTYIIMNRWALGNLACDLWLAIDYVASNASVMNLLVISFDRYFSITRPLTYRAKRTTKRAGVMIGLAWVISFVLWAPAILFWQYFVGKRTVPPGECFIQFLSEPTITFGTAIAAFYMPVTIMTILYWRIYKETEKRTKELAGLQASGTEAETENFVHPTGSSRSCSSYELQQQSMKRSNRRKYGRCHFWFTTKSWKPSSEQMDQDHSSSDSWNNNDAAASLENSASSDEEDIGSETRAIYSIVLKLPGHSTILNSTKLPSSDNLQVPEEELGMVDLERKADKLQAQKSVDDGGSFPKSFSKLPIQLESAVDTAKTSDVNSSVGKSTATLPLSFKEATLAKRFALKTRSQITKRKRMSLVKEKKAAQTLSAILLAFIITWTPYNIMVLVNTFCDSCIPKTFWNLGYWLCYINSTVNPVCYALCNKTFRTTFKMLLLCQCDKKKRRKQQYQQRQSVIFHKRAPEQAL

| IC50 [2] | SMILES | further results |
| --- | --- | --- |
|  | O=C(C(F)CNS(=O)(=O)c1cccc2nonc12)N1CCN(c2ccncc2)CC1 (racemic) | Activity [1]: 25% |
| > 10 µM | CN(CCC(=O)N1CCN(c2ccncc2)CC1)S(=O)(=O)c1cccc2nsnc12 |  |
|  | C[C@@H](CC(=O)N1CCN(c2ccncc2)CC1)NS(=O)(=O)c1cccc2nonc12 | inhibition [3]: 30% |
| > 10 µM | O=C(CCNS(=O)(=O)c1cccc2nsnc12)N1CCN(c2ccnc(F)c2)CC1 |  |
| > 10 µM | Cc1ccc2nonc2c1S(=O)(=O)NCCC(=O)N1CCN(c2ccncc2)CC1 |  |
| > 10 µM | Cc1ccnc(N2CCN(C(=O)CCNS(=O)(=O)c3cccc4nsnc34)CC2)c1 |  |
|  | C[C@H](CC(=O)N1CCN(c2ccncc2)CC1)NS(=O)(=O)c1cccc2nonc12 | inhibition [3]: inactive |
| > 10 µM | O=C(CCNS(=O)(=O)c1cccc2scnc12)N1CCN(c2ccncc2)CC1 |  |
| 4.8 µM | O=C(CCNS(=O)(=O)c1ccc(F)c2nonc12)N1CCN(c2ccc(Br)cn2)CC1 |  |
| > 10 µM | O=C(CCNS(=O)(=O)c1cccc2nsnc12)N1CCN(c2ccccn2)CC1 |  |
| 0.32 µM | O=C(CCNS(=O)(=O)c1cccc2nsnc12)N1CCN(c2ccc(Br)cn2)CC1 | Ratio IC50 [4]: 2 |
| > 10 µM | O=C(CCNS(=O)(=O)c1cccc2nsnc12)N1CCN(c2cccc(Cl)n2)CC1 |  |
| > 10 µM | O=C(CCNS(=O)(=O)c1cccc2nsnc12)N1CCN(c2nc3ccccc3o2)CC1 |  |
| 0.69 µM | O=C(CCNS(=O)(=O)c1cccc2nsnc12)N1CCN(c2ccncc2)CC1 | IC50 [5]: 0.24 µM |
| > 10 µM | Cc1ccc2nsnc2c1S(=O)(=O)NCCC(=O)N1CCN(c2ccncc2)CC1 |  |
| 1.1 µM | O=C(CCNS(=O)(=O)c1cccc2nonc12)N1CCN(c2ccc(Br)cn2)CC1 |  |
| > 10 µM | Cc1cccc(N2CCN(C(=O)CCNS(=O)(=O)c3cccc4nsnc34)CC2)n1 |  |
| > 10 µM | O=C(CCNS(=O)(=O)c1cccc2nsnc12)N1CCN(c2nccs2)CC1 |  |
| > 10 µM | O=C(CCNS(=O)(=O)c1cccc2nsnc12)N1CCN(c2ccnc(Cl)c2)CC1 |  |
| > 10 µM | CN(C)c1cccc2c(S(=O)(=O)NCCC(=O)N3CCN(c4ccncc4)CC3)cccc12 |  |

| IC50 [2] | SMILES | further results |
| --- | --- | --- |
| > 10 µM | O=C(CCNS(=O)(=O)c1cccc2nsnc12)N1CCN(c2nc3ccccc3s2)CC1 |  |
| 2.6 µM | O=C(CCNS(=O)(=O)c1cccc2nonc12)N1CCN(c2ccncc2)CC1 |  |
| > 10 µM | O=C(CCNS(=O)(=O)c1cccnc1)N1CCN(c2ccncc2)CC1 |  |
| > 10 µM | O=C(CCNS(=O)(=O)c1cccc(-n2cnnn2)c1)N1CCN(c2ccncc2)CC1 |  |
| > 10 µM | O=C(CCNS(=O)(=O)c1cccc2nsnc12)N1CCN(c2ncc(Cl)cn2)CC1 |  |
| 0.4 µM | O=C(CCNS(=O)(=O)c1cccc2ncccc12)N1CCN(c2ccncc2)CC1 | IC50 [6]: > 30 µM; IC50 [7]: > 30 µM; IC50 [5]: 0.18 µM; t1/2 (Rattus norvegicus): 40 min; IC50 [8]: > 30 µM; IC50 [9]: > 30 µM; clearance [10]: 77 mL/min/kg; bioavailability [11]: < 10% |
| 2 µM | Cc1cnccc1N1CCN(C(=O)CCNS(=O)(=O)c2cccc3nsnc23)CC1 |  |
| > 10 µM | Cc1ccc2nonc2c1S(=O)(=O)NCCC(=O)N1CCN(c2ccc(Br)cn2)CC1 |  |
| > 10 µM | O=C(CCNS(=O)(=O)c1c(Cl)ccc2nonc12)N1CCN(c2ccc(Br)cn2)CC1 |  |
| > 10 µM | CC(=O)Nc1nc(C)c(S(=O)(=O)NCCC(=O)N2CCN(c3ccc(Br)cn3)CC2)s1 |  |
| > 10 µM | O=C(CCNS(=O)(=O)c1cccc2nsnc12)N1CCN(c2cccc(F)n2)CC1 |  |
| 4.5 µM | O=C(CCNS(=O)(=O)c1cccc2nsnc12)N1CCN(c2cc(Cl)ccn2)CC1 |  |
| > 10 µM | O=C(CCNS(=O)(=O)c1ccc2nsnc2c1)N1CCN(c2ccncc2)CC1 |  |
| > 10 µM | O=C(CCNS(=O)(=O)c1cccc2nsnc12)N1CCN(c2ncccn2)CC1 |  |
| > 10 µM | O=C(CCNS(=O)(=O)c1cccc2cccnc12)N1CCN(c2ccc(Br)cn2)CC1 |  |
| > 10 µM | COc1cccc(S(=O)(=O)NCCC(=O)N2CCN(c3ccc(Br)cn3)CC2)c1 |  |
| 2.1 µM | O=C(CCNS(=O)(=O)c1cccc2ncccc12)N1CCN(c2ccc(Br)cn2)CC1 |  |
| > 10 µM | O=S(=O)(NCCCN1CCN(c2ccncc2)CC1)c1cccc2nsnc12 | Activity [1]: 17% |
| > 10 µM | O=C(CCNS(=O)(=O)c1cccc2ccccc12)N1CCN(c2ccc(Br)cn2)CC1 |  |
